Assay results as given in PubChem BioAssay (NCI).
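Briefly, cells in 96-well plates were exposed to five compound concentrations for 48 h, and endpoints were estimated by linear interpolation. At the TGI there is no net growth.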

Tests used:
Assay in all cases: NCI anticancer screen, dose series, 48 h
SR leukemia = tested on: SR leukemia
RXF 393 renal = tested on: RXF 393 renal
DU-145 prostate = tested on: DU-145 prostate
A498 renal = tested on: A498 renal
UACC-62 melanoma = tested on: UACC-62 melanoma
HOP-62 NSCLC = tested on: HOP-62 NSCLC
MOLT-4 leukemia = tested on: MOLT-4 leukemia
786-0 renal = tested on: 786-0 renal
EKVX NSCLC = tested on: EKVX NSCLC
SK-OV-3 ovarian = tested on: SK-OV-3 ovarian
U251 CNS = tested on: U251 CNS
SK-MEL-28 melanoma = tested on: SK-MEL-28 melanoma
HCT-15 colon = tested on: HCT-15 colon
BT-549 breast = tested on: BT-549 breast
RPMI-8226 leukemia = tested on: RPMI-8226 leukemia
HT29 colon = tested on: HT29 colon
NCI-H226 lung = tested on: NCI-H226 lung

SMILES | TGI (SR leukemia) [µM] | TGI (RXF 393 renal) [µM] | TGI (DU-145 prostate) [µM] | TGI (A498 renal) [µM] | TGI (UACC-62 melanoma) [µM] | TGI (HOP-62 NSCLC) [µM] | TGI (MOLT-4 leukemia) [µM] | TGI (786-0 renal) [µM] | TGI (EKVX NSCLC) [µM] | TGI (SK-OV-3 ovarian) [µM] | TGI (U251 CNS) [µM] | TGI (SK-MEL-28 melanoma) [µM] | TGI (HCT-15 colon) [µM] | TGI (BT-549 breast) [µM] | TGI (RPMI-8226 leukemia) [µM] | TGI (HT29 colon) [µM] | TGI (NCI-H226 lung) [µM]
CSc1c(CC(=O)O)n(Cc2ccccc2)c2ccccc12 | > 100 | > 100 | > 100 | > 100 | > 100 | > 100 | > 100 | > 100 | > 100 | > 100 | > 100 | > 100 | > 100 | > 100 | > 100 | > 100 | 
CC1CC(=O)N2CCCNC2=C1C#N (stereo not drawn) | > 100 | > 100 | > 100 |  | > 100 | > 100 | > 100 | > 100 | > 100 | > 100 | > 100 | > 100 | > 100 | > 100 | > 100 | > 100 | > 100
Cn1c(=O)nc2n(CCO)ccnc-2c1=O | > 100 | > 100 | > 100 | > 100 | > 100 | > 100 | > 100 | > 100 | > 100 |  | > 100 | > 100 | > 100 | > 100 | > 100 | > 100 | > 100
COc1cc2c(c(N)c1OC)C(=O)/C(=C/c1cc(C)c(O)c(C)c1)C2 | > 100 | > 100 | 16.9 | > 90.4 | > 100 | > 60.2 | > 100 | > 100 | > 100 | > 100 | > 45.5 | > 100 | > 100 | > 100 |  | > 100 | > 100
COc1ccc(OC)c(C2CCCc3c2cnc2nc(N)nc(N)c32)c1 (stereo not drawn) | > 100 |  | > 100 | > 100 | > 100 | > 100 | > 100 | > 100 | > 100 | > 100 | > 100 | > 100 | > 100 | > 100 | > 100 | > 100 | > 100
COC(=O)c1ccccc1/C=C1\Cc2cc3c(cc2C1=O)CCC3 | > 100 |  | > 100 | > 100 | > 100 | > 100 | > 100 | > 100 | > 100 | > 100 | > 100 | > 100 | > 100 | > 100 | > 100 | > 100 | > 100
O=C(O)Cn1nnc2c(=O)[nH][nH]c(=O)c21 | > 100 |  | > 100 |  |  | > 100 | > 10 | > 100 | > 100 |  | > 100 | > 100 | > 100 | > 100 | > 100 | > 100 | 
